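Where inhibition never reached the appropriate level, the endpoint shown equals the highest concentration tested. Otherwise, values were interpolated linearly from a five-concentration, 48-hour dose response in 96-well plates. GI50 is the concentration that inhibits growth by half. The concentration for full growth arrest is given as TGI.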
Assays:
Test in all cases: NCI-60 cell line screen, 48 h
[1] = system: 786-0 renal
[2] = system: A498 renal
[3] = system: A549 NSCLC
[4] = system: ACHN renal
[5] = system: BT-549 breast
[6] = system: CAKI-1 renal
[7] = system: CCRF-CEM leukemia
[8] = system: COLO 205 colon
[9] = system: DU-145 prostate
[10] = system: EKVX NSCLC
[11] = system: HCC-2998 colon
[12] = system: HCT-116 colon
[13] = system: HCT-15 colon
[14] = system: HL-60(TB) leukemia
[15] = system: HOP-62 NSCLC
[16] = system: HOP-92 NSCLC
[17] = system: HS 578T breast
[18] = system: HT29 colon
[19] = system: IGROV1 ovarian
[20] = system: K-562 leukemia
[21] = system: KM12 colon
[22] = system: LOX IMVI melanoma
[23] = system: M14 melanoma
[24] = system: MALME-3M melanoma
[25] = system: MCF7 breast
[26] = system: MDA-MB-231 breast
[27] = system: MDA-MB-435
[28] = system: MDA-MB-468 breast
[29] = system: MOLT-4 leukemia
[30] = system: NCI-H226 lung
[31] = system: NCI-H23 lung
[32] = system: NCI-H460 lung
[33] = system: NCI-H522 lung
[34] = system: NCI/ADR-RES ovarian
[35] = system: OVCAR-3 ovarian
[36] = system: OVCAR-4 ovarian
[37] = system: OVCAR-5 ovarian
[38] = system: OVCAR-8 ovarian
[39] = system: PC-3 prostate
[40] = system: RPMI-8226 leukemia
[41] = system: SF-268 CNS
[42] = system: SF-295 CNS
[43] = system: SF-539 CNS
[44] = system: SK-MEL-2 melanoma
[45] = system: SK-MEL-28 melanoma
[46] = system: SK-MEL-5 melanoma
[47] = system: SK-OV-3 ovarian
[48] = system: SN12C renal
[49] = system: SNB-19 CNS
[50] = system: SNB-75 CNS
[51] = system: SR leukemia
[52] = system: SW-620 colon
[53] = system: T-47D breast
[54] = system: TK-10 renal
[55] = system: U251 CNS
[56] = system: UACC-257 melanoma
[57] = system: UACC-62 melanoma
[58] = system: UO-31 renal

`CCc1ccccc1-c1nc(CN[C@@H]2C[C@@H]3C[C@H]([C@H]2C)C3(C)C)c(C)o1` was tested, and the GI50 [1] was 1710 nM, the TGI [1] was 3500 nM and the GI50 [2] was 1540 nM. For the same compound, the TGI [2] was 2950 nM, the GI50 [3] was 1880 nM and the TGI [3] was 4030 nM. The GI50 [4] was 1770 nM, the TGI [4] was 3180 nM and the GI50 [5] was 1710 nM. The TGI [5] was 3170 nM, the GI50 [6] was 1830 nM and the TGI [6] was 3810 nM. For the same compound, the GI50 [7] was 3250 nM, the TGI [7] was 10600 nM and the GI50 [8] was 1850 nM. The TGI [8] was 3950 nM, the GI50 [9] was 2030 nM and the TGI [9] was 4260 nM. It also gave a GI50 [10] of 2580 nM, a TGI [10] of 7010 nM and a GI50 [11] of 1650 nM. It also gave a TGI [11] of 3070 nM, a GI50 [12] of 1740 nM and a TGI [12] of 3300 nM. For the same compound, the GI50 [13] was 1720 nM, the TGI [13] was 3150 nM and the GI50 [14] was 2430 nM. The TGI [14] was 6730 nM, the GI50 [15] was 1650 nM and the TGI [15] was 3280 nM. The GI50 [16] was 1370 nM, the TGI [16] was 2850 nM and the GI50 [17] was 1830 nM. It also gave a TGI [17] of 4160 nM, a GI50 [18] of 1730 nM and a TGI [18] of 3400 nM. The GI50 [19] was 1700 nM, the TGI [19] was 3260 nM and the GI50 [20] was 2340 nM. It also gave a TGI [20] of 6540 nM, a GI50 [21] of 1850 nM and a TGI [21] of 3570 nM. For the same compound, the GI50 [22] was 1660 nM, the TGI [22] was 3020 nM and the GI50 [23] was 1620 nM. It also gave a TGI [23] of 3120 nM, a GI50 [24] of 1490 nM and a TGI [24] of 2840 nM. For the same compound, the GI50 [25] was 1650 nM, the TGI [25] was 3180 nM and the GI50 [26] was 1700 nM. It also gave a TGI [26] of 3120 nM, a GI50 [27] of 1670 nM and a TGI [27] of 3110 nM. For the same compound, the GI50 [28] was 1500 nM, the TGI [28] was 2870 nM and the GI50 [29] was 2230 nM. The TGI [29] was 5720 nM, the GI50 [30] was 2110 nM and the TGI [30] was 5000 nM. The GI50 [31] was 1960 nM, the TGI [31] was 4380 nM and the GI50 [32] was 1720 nM. For the same compound, the TGI [32] was 3160 nM, the GI50 [33] was 1610 nM and the TGI [33] was 3220 nM. It also gave a GI50 [34] of 1760 nM, a TGI [34] of 3610 nM and a GI50 [35] of 1610 nM. It also gave a TGI [35] of 2960 nM, a GI50 [36] of 2530 nM and a TGI [36] of 8360 nM. For the same compound, the GI50 [37] was 1590 nM, the TGI [37] was 3040 nM and the GI50 [38] was 1700 nM. The TGI [38] was 3240 nM, the GI50 [39] was 1800 nM and the TGI [39] was 4380 nM. For the same compound, the GI50 [40] was 2190 nM, the TGI [40] was 5270 nM and the GI50 [41] was 2580 nM. The TGI [41] was 11000 nM, the GI50 [42] was 1720 nM and the TGI [42] was 3170 nM. The GI50 [43] was 1800 nM, the TGI [43] was 3180 nM and the GI50 [44] was 2550 nM. It also gave a TGI [44] of 7340 nM, a GI50 [45] of 1720 nM and a TGI [45] of 3110 nM. For the same compound, the GI50 [46] was 1770 nM, the TGI [46] was 3150 nM and the GI50 [47] was 14200 nM. For the same compound, the TGI [47] was 28900 nM, the GI50 [48] was 1680 nM and the TGI [48] was 3130 nM. The GI50 [49] was 1770 nM, the TGI [49] was 3400 nM and the GI50 [50] was 12000 nM. For the same compound, the TGI [50] was 24400 nM, the GI50 [51] was 2110 nM and the TGI [51] was 5330 nM. For the same compound, the GI50 [52] was 1690 nM, the TGI [52] was 3200 nM and the GI50 [53] was 1730 nM. For the same compound, the TGI [53] was 3810 nM, the GI50 [54] was 2010 nM and the TGI [54] was 5080 nM. The GI50 [55] was 1600 nM, the TGI [55] was 3060 nM and the GI50 [56] was 1660 nM. For the same compound, the TGI [56] was 3230 nM, the GI50 [57] was 1690 nM and the TGI [57] was 3190 nM. For the same compound, the GI50 [58] was 2130 nM and the TGI [58] was 8450 nM.

— PubChem BioAssay (NCI)
